# Experimental data from patent publication US20210220370A1, “SELECTIVE HDAC8 INHIBITORS AND THEIR USES” (HOCHSCHULE DARMSTADT, priority 2015, published 2021).
# Target: HDAC2 (Homo sapiens, UniProt Q92769)
# Assay: HDAC2 colorimetric assay, substrate Boc-Lys(Ac)-AMC
# Format: biochemical
# Conditions: Table 1
# HDAC2, sequence (Q92769 whole entry): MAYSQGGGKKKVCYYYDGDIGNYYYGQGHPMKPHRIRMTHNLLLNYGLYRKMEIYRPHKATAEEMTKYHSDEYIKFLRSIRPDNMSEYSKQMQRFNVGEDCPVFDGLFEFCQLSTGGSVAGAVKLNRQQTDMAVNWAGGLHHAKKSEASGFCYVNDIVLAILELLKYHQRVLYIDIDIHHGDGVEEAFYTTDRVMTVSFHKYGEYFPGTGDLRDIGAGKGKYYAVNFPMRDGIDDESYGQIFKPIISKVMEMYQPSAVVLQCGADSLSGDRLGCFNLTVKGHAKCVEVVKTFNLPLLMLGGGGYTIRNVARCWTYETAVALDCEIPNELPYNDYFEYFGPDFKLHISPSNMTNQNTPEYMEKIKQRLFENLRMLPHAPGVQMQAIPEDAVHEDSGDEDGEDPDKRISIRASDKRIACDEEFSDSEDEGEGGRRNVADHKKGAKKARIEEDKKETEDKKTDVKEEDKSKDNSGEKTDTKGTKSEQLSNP
row,IC50 [µM],Compound
1,> 50,"N=C1Sc2c(F)cccc2C2=NCCCN12 [Compound 13h, 8-Fluoro-3,4-dihydrobenzo[e]pyrimido[1,2-c][1,3]thiazin-6(2H)-imine]"
2,> 50,"CN(C)c1ccc2c(c1)SC(=N)N1CCCN=C21 [Compound 13d, 6-Imino-N,N-Dimethyl-2,3,4,6-Tetrahydrobenzo[e]Pyrimido[1,2-c][1,3]Thiazin-9-Imine]"

# Target: HDAC3 (Homo sapiens, UniProt O15379)
# Assay: HDAC3 colorimetric assay, substrate Boc-Lys(Ac)-AMC
# Format: biochemical
# Conditions: Table 1
# HDAC3, sequence (O15379 whole entry): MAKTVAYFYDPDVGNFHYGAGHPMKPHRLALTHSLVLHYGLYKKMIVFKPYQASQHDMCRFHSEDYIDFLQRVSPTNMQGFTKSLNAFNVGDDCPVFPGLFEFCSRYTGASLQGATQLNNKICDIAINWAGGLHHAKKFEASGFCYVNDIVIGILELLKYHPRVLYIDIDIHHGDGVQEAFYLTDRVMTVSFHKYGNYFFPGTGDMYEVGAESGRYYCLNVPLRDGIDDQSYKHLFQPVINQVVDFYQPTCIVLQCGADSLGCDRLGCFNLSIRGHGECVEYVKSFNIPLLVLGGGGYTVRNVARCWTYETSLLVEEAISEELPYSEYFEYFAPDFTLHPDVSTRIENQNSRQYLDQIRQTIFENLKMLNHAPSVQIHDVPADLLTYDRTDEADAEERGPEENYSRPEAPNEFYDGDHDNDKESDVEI
# HDAC3, sequence (Q9Y618 395-489 partner limits assumed): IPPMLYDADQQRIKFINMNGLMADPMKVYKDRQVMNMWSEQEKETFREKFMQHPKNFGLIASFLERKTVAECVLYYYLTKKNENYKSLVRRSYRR
row,IC50 [µM],Compound
1,> 50,"N=C1Sc2c(F)cccc2C2=NCCCN12 [Compound 13h, 8-Fluoro-3,4-dihydrobenzo[e]pyrimido[1,2-c][1,3]thiazin-6(2H)-imine]"
2,> 50,"CN(C)c1ccc2c(c1)SC(=N)N1CCCN=C21 [Compound 13d, 6-Imino-N,N-Dimethyl-2,3,4,6-Tetrahydrobenzo[e]Pyrimido[1,2-c][1,3]Thiazin-9-Imine]"

# Target: HDAC4 (Homo sapiens, UniProt P56524)
# Assay: not given
# Format: biochemical
# Conditions: Table 1
# HDAC4, sequence (P56524 whole entry): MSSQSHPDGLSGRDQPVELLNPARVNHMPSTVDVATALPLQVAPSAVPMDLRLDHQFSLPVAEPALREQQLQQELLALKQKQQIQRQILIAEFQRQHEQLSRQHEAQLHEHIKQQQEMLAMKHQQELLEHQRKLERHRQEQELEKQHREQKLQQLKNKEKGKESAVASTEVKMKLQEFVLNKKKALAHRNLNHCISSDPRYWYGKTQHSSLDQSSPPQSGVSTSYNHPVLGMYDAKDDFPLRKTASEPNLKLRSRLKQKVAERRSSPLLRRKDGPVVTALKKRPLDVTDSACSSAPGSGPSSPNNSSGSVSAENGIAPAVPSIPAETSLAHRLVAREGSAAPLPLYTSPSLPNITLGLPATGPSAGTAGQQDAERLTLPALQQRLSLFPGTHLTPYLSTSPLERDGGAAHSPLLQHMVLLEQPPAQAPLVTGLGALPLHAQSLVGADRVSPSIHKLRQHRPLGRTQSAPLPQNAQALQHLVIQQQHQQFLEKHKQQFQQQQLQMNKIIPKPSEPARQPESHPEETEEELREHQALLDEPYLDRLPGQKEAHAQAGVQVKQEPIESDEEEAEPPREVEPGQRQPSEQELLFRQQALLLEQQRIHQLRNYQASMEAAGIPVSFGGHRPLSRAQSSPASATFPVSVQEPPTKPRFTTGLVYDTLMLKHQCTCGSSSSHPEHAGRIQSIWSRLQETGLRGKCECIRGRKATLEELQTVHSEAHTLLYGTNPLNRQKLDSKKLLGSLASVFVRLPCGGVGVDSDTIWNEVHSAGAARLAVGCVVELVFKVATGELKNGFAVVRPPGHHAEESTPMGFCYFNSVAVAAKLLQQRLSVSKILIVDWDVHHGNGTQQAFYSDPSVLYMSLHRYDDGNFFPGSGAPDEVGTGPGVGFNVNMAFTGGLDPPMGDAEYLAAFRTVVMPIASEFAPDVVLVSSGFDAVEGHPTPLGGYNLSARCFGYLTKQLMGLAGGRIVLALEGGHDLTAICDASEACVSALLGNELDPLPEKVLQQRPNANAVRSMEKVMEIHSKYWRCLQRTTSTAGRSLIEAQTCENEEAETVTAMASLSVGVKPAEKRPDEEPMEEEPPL
row,IC50 [µM],Compound
1,5.1 ± 0.6,"N=C1Sc2c(F)cccc2C2=NCCCN12 [Compound 13h, 8-Fluoro-3,4-dihydrobenzo[e]pyrimido[1,2-c][1,3]thiazin-6(2H)-imine]"
2,> 50,"CN(C)c1ccc2c(c1)SC(=N)N1CCCN=C21 [Compound 13d, 6-Imino-N,N-Dimethyl-2,3,4,6-Tetrahydrobenzo[e]Pyrimido[1,2-c][1,3]Thiazin-9-Imine]"

# Target: T1, HDAC6 (Homo sapiens, UniProt Q9UBN7)
# T1 sequence (Q9UBN7 1-1215): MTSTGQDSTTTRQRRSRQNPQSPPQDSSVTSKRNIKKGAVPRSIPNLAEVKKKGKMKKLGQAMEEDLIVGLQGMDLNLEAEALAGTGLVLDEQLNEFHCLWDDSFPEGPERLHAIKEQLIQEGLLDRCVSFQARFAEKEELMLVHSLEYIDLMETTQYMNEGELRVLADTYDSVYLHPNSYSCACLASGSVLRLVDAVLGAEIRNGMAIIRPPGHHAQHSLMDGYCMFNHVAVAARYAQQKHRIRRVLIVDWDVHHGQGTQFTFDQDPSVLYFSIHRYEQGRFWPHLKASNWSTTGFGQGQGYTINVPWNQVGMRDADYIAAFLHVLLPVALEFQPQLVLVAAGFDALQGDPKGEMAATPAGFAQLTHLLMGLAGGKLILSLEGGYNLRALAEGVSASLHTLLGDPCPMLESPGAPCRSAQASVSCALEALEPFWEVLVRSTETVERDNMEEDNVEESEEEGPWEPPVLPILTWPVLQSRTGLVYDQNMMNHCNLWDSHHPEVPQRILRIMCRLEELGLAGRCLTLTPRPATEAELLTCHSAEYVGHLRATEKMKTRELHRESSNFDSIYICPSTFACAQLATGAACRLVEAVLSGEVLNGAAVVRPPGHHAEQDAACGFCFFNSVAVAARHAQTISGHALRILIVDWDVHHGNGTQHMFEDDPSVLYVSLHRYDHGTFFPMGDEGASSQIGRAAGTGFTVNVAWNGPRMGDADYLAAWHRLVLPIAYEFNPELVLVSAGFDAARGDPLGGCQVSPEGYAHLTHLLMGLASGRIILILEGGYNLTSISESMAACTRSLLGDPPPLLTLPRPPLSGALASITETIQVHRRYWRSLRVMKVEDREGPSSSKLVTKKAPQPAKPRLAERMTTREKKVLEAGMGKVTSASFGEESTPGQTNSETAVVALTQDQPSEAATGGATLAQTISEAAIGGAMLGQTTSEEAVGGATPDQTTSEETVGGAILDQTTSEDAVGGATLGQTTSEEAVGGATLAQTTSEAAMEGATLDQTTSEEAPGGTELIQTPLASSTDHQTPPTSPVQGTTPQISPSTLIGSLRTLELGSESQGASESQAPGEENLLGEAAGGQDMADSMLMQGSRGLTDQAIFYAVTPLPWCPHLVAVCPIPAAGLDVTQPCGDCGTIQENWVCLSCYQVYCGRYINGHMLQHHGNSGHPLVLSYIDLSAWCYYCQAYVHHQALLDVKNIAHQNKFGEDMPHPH
# Assay: HDAC6 colorimetric assay, substrate Boc-Lys(Ac)-AMC
# Format: biochemical
# Conditions: Table 1; read-out: IC50 HDAC6
row,IC50 [µM],Compound
1,5.2 ± 1.1,"N=C1Sc2c(F)cccc2C2=NCCCN12 [Compound 13h, 8-Fluoro-3,4-dihydrobenzo[e]pyrimido[1,2-c][1,3]thiazin-6(2H)-imine]"
2,14 ± 1,"CN(C)c1ccc2c(c1)SC(=N)N1CCCN=C21 [Compound 13d, 6-Imino-N,N-Dimethyl-2,3,4,6-Tetrahydrobenzo[e]Pyrimido[1,2-c][1,3]Thiazin-9-Imine]"

# System: uterine leiomyosarcoma cell line SKUT-1
# Assay: Growth inhibition of cancer cell line, resazurin assay
# Format: cell-based, Human
# Conditions: Homo sapiens, SK-UT-1; Table 2, resazurin assay
row,GI50 [µM],Compound
1,> 1000,"N=C1Sc2c(F)cccc2C2=NCCCN12 [Compound 13h, 8-Fluoro-3,4-dihydrobenzo[e]pyrimido[1,2-c][1,3]thiazin-6(2H)-imine]"
2,106 ± 21,"CN(C)c1ccc2c(c1)SC(=N)N1CCCN=C21 [Compound 13d, 6-Imino-N,N-Dimethyl-2,3,4,6-Tetrahydrobenzo[e]Pyrimido[1,2-c][1,3]Thiazin-9-Imine]"

# System: breast cancer cell line MCF-7
# Assay: as above
# Format: cell-based, Human
# Conditions: Homo sapiens, MCF7; Table 2, resazurin assay
row,GI50 [µM],Compound
1,> 1000,"N=C1Sc2c(F)cccc2C2=NCCCN12 [Compound 13h, 8-Fluoro-3,4-dihydrobenzo[e]pyrimido[1,2-c][1,3]thiazin-6(2H)-imine]"
2,200 ± 58,"CN(C)c1ccc2c(c1)SC(=N)N1CCCN=C21 [Compound 13d, 6-Imino-N,N-Dimethyl-2,3,4,6-Tetrahydrobenzo[e]Pyrimido[1,2-c][1,3]Thiazin-9-Imine]"

# Target: HDAC1 (Homo sapiens, UniProt Q13547)
# Assay: HDAC1 colorimetric assay, substrate Boc-Lys(Ac)-AMC
# Conditions: IC50 HDAC1, Table 1
# Description: 1 nM of HDAC1 was incubated with increasing concentrations of the respective compound for 30 minutes at 30° C. The reaction was initiated by addition of 50 μM of the substrate Boc-Lys(Ac)-AMC. After an incubation of 60 minutes the reaction was stopped by addition of 20 μM SAHA and the deacetylated substrate was converted into a fluorescent product by the addition of trypsin.
# HDAC1, sequence (Q13547 whole entry): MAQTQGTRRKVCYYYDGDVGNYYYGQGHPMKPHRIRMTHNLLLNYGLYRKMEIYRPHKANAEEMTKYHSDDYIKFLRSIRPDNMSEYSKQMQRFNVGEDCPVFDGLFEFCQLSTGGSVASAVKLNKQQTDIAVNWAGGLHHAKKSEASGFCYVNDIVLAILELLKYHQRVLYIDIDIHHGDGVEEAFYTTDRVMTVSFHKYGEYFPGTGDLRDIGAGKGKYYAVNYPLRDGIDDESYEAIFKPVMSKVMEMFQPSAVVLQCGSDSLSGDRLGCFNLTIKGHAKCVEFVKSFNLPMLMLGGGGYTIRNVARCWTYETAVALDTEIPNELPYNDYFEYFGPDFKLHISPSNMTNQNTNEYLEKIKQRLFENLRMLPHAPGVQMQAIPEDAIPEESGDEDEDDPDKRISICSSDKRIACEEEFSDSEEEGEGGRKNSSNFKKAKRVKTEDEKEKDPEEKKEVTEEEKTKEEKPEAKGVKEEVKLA
row,IC50 [µM],Compound
1,35 ± 3,"N=C1Sc2c(F)cccc2C2=NCCCN12 [Compound 13h, 8-Fluoro-3,4-dihydrobenzo[e]pyrimido[1,2-c][1,3]thiazin-6(2H)-imine]"

# Same assay, conditions: IC50 for HDAC1, FIG. 3; 50 μM Boc-Lys(Ac)-AMC
row,IC50 [µM],Compound
1,34,"CN(C)c1ccc2c(c1)SC(=N)N1CCCN=C21 [Compound 13d, 6-Imino-N,N-Dimethyl-2,3,4,6-Tetrahydrobenzo[e]Pyrimido[1,2-c][1,3]Thiazin-9-Imine]"

# Target: HDAC5 (Homo sapiens, UniProt Q9UQL6)
# Assay: HDAC5 colorimetric assay, substrate Boc-Lys(TFA)-AMC
# Conditions: not given
# HDAC5, sequence (Q9UQL6 whole entry): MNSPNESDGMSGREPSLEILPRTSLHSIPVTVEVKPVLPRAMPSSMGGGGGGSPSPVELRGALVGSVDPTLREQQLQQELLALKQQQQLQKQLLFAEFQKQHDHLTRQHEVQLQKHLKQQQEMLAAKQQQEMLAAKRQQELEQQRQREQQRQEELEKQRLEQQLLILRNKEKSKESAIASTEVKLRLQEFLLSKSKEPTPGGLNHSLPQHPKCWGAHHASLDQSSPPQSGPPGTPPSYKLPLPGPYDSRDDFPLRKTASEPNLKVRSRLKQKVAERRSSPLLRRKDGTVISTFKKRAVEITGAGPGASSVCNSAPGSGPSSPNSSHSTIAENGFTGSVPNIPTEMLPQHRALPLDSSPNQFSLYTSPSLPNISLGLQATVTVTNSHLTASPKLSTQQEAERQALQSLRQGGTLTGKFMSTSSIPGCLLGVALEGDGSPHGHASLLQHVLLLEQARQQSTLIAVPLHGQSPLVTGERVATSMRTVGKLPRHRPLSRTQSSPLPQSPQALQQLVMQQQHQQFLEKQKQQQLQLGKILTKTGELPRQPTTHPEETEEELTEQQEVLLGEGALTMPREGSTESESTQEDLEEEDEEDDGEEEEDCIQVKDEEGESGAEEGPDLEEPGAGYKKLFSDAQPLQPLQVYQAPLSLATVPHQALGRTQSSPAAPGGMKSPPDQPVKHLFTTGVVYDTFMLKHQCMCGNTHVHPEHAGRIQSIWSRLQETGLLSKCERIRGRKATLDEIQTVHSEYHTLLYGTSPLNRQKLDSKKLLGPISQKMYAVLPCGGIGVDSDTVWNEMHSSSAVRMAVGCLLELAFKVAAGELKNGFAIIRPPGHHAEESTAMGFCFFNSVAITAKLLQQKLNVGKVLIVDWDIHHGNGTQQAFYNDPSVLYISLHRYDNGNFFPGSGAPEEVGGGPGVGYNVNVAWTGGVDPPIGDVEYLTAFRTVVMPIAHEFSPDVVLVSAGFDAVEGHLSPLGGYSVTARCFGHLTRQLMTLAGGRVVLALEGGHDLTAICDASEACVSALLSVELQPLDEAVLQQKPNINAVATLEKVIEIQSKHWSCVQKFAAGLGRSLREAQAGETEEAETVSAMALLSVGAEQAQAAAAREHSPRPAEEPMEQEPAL
row,IC50 [µM],Compound
1,0.74 ± 0.16,"N=C1Sc2c(F)cccc2C2=NCCCN12 [Compound 13h, 8-Fluoro-3,4-dihydrobenzo[e]pyrimido[1,2-c][1,3]thiazin-6(2H)-imine]"
2,12,"CN(C)c1ccc2c(c1)SC(=N)N1CCCN=C21 [Compound 13d, 6-Imino-N,N-Dimethyl-2,3,4,6-Tetrahydrobenzo[e]Pyrimido[1,2-c][1,3]Thiazin-9-Imine]"

# Target: T2, HDAC7 (Homo sapiens, UniProt Q8WUI4)
# T2 sequence (Q8WUI4 1-952): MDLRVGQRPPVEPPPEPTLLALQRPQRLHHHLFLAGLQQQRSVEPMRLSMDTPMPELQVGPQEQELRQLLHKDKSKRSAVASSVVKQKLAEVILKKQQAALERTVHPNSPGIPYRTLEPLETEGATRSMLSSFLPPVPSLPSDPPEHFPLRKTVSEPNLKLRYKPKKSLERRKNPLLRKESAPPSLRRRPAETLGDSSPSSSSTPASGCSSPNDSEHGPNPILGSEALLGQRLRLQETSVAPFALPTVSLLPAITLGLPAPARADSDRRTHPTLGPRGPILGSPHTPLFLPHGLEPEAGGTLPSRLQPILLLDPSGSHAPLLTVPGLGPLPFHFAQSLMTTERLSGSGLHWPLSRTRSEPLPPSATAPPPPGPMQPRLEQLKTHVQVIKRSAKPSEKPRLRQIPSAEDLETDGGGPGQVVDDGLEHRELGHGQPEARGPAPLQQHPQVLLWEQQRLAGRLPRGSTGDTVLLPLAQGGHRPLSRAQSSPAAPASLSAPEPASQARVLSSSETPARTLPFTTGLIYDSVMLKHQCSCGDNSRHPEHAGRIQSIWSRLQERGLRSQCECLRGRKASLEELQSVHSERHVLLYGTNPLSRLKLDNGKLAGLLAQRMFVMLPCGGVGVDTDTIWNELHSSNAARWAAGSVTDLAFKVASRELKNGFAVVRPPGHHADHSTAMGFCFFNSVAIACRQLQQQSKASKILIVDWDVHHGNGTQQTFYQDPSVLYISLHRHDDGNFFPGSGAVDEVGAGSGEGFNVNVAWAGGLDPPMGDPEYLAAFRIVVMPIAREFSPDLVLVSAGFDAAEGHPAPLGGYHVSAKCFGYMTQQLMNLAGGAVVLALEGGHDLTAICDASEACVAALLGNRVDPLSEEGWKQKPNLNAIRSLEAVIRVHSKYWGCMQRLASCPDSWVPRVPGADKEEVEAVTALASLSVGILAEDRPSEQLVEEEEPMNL
# Assay: HDAC7 colorimetric assay, substrate Boc-Lys(TFA)-AMC
# Conditions: IC50 HDAC7, Table 1
row,IC50 [µM],Compound
1,5 ± 1,"N=C1Sc2c(F)cccc2C2=NCCCN12 [Compound 13h, 8-Fluoro-3,4-dihydrobenzo[e]pyrimido[1,2-c][1,3]thiazin-6(2H)-imine]"
2,2 ± 0.5,"CN(C)c1ccc2c(c1)SC(=N)N1CCCN=C21 [Compound 13d, 6-Imino-N,N-Dimethyl-2,3,4,6-Tetrahydrobenzo[e]Pyrimido[1,2-c][1,3]Thiazin-9-Imine]"

# Same assay, conditions: IC50 for HDAC7, FIG. 3; 20 μM Boc-Lys(TFA)-AMC
row,IC50 [µM],Compound
1,2.1,"CN(C)c1ccc2c(c1)SC(=N)N1CCCN=C21 [Compound 13d, 6-Imino-N,N-Dimethyl-2,3,4,6-Tetrahydrobenzo[e]Pyrimido[1,2-c][1,3]Thiazin-9-Imine]"

# Target: T3, HDAC8 (Homo sapiens, UniProt Q9BY41)
# T3 sequence (Q9BY41 1-377): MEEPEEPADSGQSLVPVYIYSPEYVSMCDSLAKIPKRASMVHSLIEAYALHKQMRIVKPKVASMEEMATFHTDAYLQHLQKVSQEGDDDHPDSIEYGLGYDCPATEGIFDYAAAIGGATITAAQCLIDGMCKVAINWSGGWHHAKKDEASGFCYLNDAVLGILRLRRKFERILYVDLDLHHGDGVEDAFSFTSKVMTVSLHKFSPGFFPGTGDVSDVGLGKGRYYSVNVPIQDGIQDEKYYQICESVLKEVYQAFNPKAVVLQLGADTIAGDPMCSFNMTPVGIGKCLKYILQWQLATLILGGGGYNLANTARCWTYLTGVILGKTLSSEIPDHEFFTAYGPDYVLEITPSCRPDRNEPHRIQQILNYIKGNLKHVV
# Assay: HDAC8 colorimetric assay, substrate Boc-Lys(TFA)-AMC
# Conditions: IC50 HDAC8, Table 1
# Description: 1 nM of HDAC4 was incubated with increasing concentrations of the respective compound for 30 minutes at 30° C. The reaction was initiated by addition of 20 μM of the substrate Boc-Lys(trifluoracetyl)-AMC. After an incubation of 60 minutes the reaction was stopped by addition of 20 μM SAHA and the deacetylated substrate was converted into a fluorescent product by the addition of trypsin.
row,IC50 [µM],Compound
1,0.017 ± 0.001,"N=C1Sc2c(F)cccc2C2=NCCCN12 [Compound 13h, 8-Fluoro-3,4-dihydrobenzo[e]pyrimido[1,2-c][1,3]thiazin-6(2H)-imine]"
2,0.072 ± 0.003,"CN(C)c1ccc2c(c1)SC(=N)N1CCCN=C21 [Compound 13d, 6-Imino-N,N-Dimethyl-2,3,4,6-Tetrahydrobenzo[e]Pyrimido[1,2-c][1,3]Thiazin-9-Imine]"

# Same assay, conditions: IC50 for HDAC8, FIG. 3; 20 μM Boc-Lys(TFA)-AMC
row,IC50 [µM],Compound
1,0.071,"CN(C)c1ccc2c(c1)SC(=N)N1CCCN=C21 [Compound 13d, 6-Imino-N,N-Dimethyl-2,3,4,6-Tetrahydrobenzo[e]Pyrimido[1,2-c][1,3]Thiazin-9-Imine]"

# System: T cell leukemia cell line JURKAT
# Assay: Growth inhibition of cancer cell line, resazurin assay
# Conditions: Homo sapiens, Jurkat, read-out: GI50 JURKAT
# Description: The following tumor cell lines were used: • Human uterine leiomyosarcoma cell line SKUT-1 (ATCC® HTB114™) • Human T cell leukemia cell line JURKAT (ATCC® TIB152™) • Human breast cancer cell line MCF-7 (ATCC® HTB22™)
# Cells were cultured in Dulbecco's modified Eagle's medium (DMEM) supplemented with 10% FCS.
row,GI50 [µM],Compound
1,42 ± 3,"N=C1Sc2c(F)cccc2C2=NCCCN12 [Compound 13h, 8-Fluoro-3,4-dihydrobenzo[e]pyrimido[1,2-c][1,3]thiazin-6(2H)-imine]"
2,153 ± 28,"CN(C)c1ccc2c(c1)SC(=N)N1CCCN=C21 [Compound 13d, 6-Imino-N,N-Dimethyl-2,3,4,6-Tetrahydrobenzo[e]Pyrimido[1,2-c][1,3]Thiazin-9-Imine]"
